Source: PubChem BioAssay AID2060498 (Molecular Pharmacology Branch, DTP, NCI, 2025)
“And” between values parts separate entries of the source, which are not always exact repeats. Equal values may be shown once.

Test system: 171881-019-R-J1-PDC tumor spheroids, viability
Assay: Anticancer human tumor 171881-019-R-J1-PDC patient-derived invasive breast carcinoma cell line growth inhibition [GQUAD]
Details: spheroids with HUVEC and MSC; for viability, T/C: stronger effect = lower value
Excerpt: DNA G-quadruplex Stabilizer Agents in Combinations in Complex Spheroids
A high-throughput screen of multi-cell type tumor spheroids was designed to identify active combinations of DNA G-quadruplex stabilizer agents and targeted small molecules. Complex spheroids include a stromal component modeled by human endothelial cells (HUVEC) and fibroblasts modeled by human mesenchymal stem cells (MSCs). The concentration ranges selected for each drug and investigational agent were based upon clinically achievable concentrations if the clinical Cmax of the agent was known.
Compounds. The drugs and investigational agents: pidnarulex (CX-5461; NSC782164), APTO-253 (NSC789042), BRACO-19 (NSC847499), peposertib (NSC802822), ceralasertib (NSC780249), elimusertib (NSC800525), camonsertib (NSC841442), AZD-1390 (NSC803789), olaparib (NSC753686), talazoparib (NSC767125), ART-558 (NSC835418), sotorasib (NSC818433), MRTX-1133 (NSC836407), SN-38 (NSC673596), topotecan (NSC609699), etoposide (NSC141540), doxorubicin (NSC123127), gemcitabine (NSC613327), 5-fluorouracil (NSC19893), paclitaxel (NSC125973), vemurafenib (NSC761431), panobinostat (NSC761190), R-306465 (JNJ-16241199; NSC773264), adavosertib (NSC754352), TP-3654 (NSC805149), carboplatin (NSC241240), KSQ-4279 (NSC840948), and staurosporine (NSC755774) were obtained from the National Cancer Institute (NCI) Developmental Therapeutics Program Chemical Repository (34). The FDA-approved anticancer drug set is available from the NCI Developmental Therapeutics Program. […] The stock solutions were prepared in dimethyl sulfoxide (DMSO, Sigma-Aldrich, St. Louis, MO, cat. D2650) at 800-fold the tested concentration and stored at -70 degrees C prior to their use. All drugs and investigational agents were tested over a range starting from a high concentration at or near the clinical Cmax and decreasing in half-log increments. If the clinical Cmax for an agent had not been determined, the highest concentration tested was 10 microM.
2.3 Cell Culture. All cells were maintained in an incubator at 37 degrees C and 5% CO2 with 95% humidity. The PDC lines were cultured according to standard operating procedures established by the NCI PDMR. All PDCs were thawed and cultured in Matrigel-coated flasks prepared with a working solution of 1X Ham's F-12 nutrient mix, without supplementation (Invitrogen, cat. 11765054), 100 U/mL penicillin-streptomycin (Invitrogen, cat. 15140122), and 2.5% Matrigel (Corning Inc., cat. 354248) for the first three passages. The 857933-349-R-J2-PDC line was cultured in 6C/Colon 1B media, which includes advanced DMEM/F-12 (Thermo Fisher Scientific, cat. 12634028), 10 mM HEPES (Thermo Fisher Scientific, cat. 15630080), 1X GlutaMAX supplement (Thermo Fisher Scientific, cat. 35050061), 0.1 mg/mL primocin (InvivoGen, cat. ant-pm-2), 10% defined fetal bovine serum, heat inactivated (HyClone Laboratories Inc., cat. SH30070.03HI), 50% L-WRN conditioned media (ATCC, cat. CRL-3276), 1.25 mM N-Acetyl-L-cysteine (Sigma-Aldrich, cat. A9165), 10 mM nicotinamide (Sigma-Aldrich, cat. N0636), 1X B-27 supplement (Thermo Fisher Scientific, cat. 17504044), 1X N-2 supplement (Thermo Fisher Scientific, cat. 17502048), 10 microM Y-27632 dihydrochloride (Tocris Bioscience, cat. 1254), and 50 ng/mL human EGF recombinant protein (Thermo Fisher Scientific, cat. PHG0311). The 485176-168-R4-J1-PDC line was cultured in Panc media, which includes all 6C/Colon 1B media components plus 100 ng/mL human FGF-10 (Thermo Fisher Scientific, cat. 100-26), 500 nM SB-431542 (Selleckchem, cat. S1067), and gastrin (Tocris, cat. 3006).
[…]
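Further: spheroids exposed to compounds for 7 days.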
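Wherever viability, T/C is given: 100% = DMSO vehicle control viability.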

IC50 (curve of compound)	IC50 (compound alone, run of 02/26/2024)	SMILES	viability, T/C (compound 0.0316 µM)	viability, T/C (compound 0.1 µM)	viability, T/C (compound 0.316 µM)	viability, T/C (compound 1 µM)	viability, T/C (compound 3.16 µM)	viability, T/C (compound 10 µM)	viability, T/C (compound 0.000999 µM)	viability, T/C (compound 0.00316 µM)	viability, T/C (compound 0.00999 µM)	viability, T/C (compound 0.0999 µM)
478 nM and 552 nM and 475 nM	–	C#Cc1c(F)ccc2cc(O)cc(-c3ncc4c(N5CC6CCC(C5)N6)nc(OCC56CCCN5CC(F)C6)nc4c3F)c12 (stereo not given)	91.1% and 86.6% and 83.5%	72.5% and 68.7% and 74.1%	55.5% and 61.2% and 55.2%	41.4% and 38% and 36.8%	29.1% and 29.3% and 26.5%	24.5% and 6.82% and 10.6%	–	–	–	–
> 10000 nM	–	C=CC(=O)N1CCN(c2nc(=O)n(-c3c(C)ccnc3C(C)C)c3nc(-c4c(O)cccc4F)c(F)cc23)C(C)C1 (stereo not given)	85.8% and 97% and 88.1%	94.8% and 102% and 105%	101% (2×) and 104%	104% (2×) and 108%	96.7% and 93.7% and 96.9%	51.8% and 53.1% and 55.6%	–	–	–	–
660 nM and 789 nM and 669 nM	–	C=CCn1c(=O)c2cnc(Nc3ccc(N4CCN(C)CC4)cc3)nc2n1-c1cccc(C(C)(C)O)n1	101% and 105% (2×)	80.9% and 102% and 89.4%	76.6% and 92% and 76.5%	35.9% (2×) and 39.2%	18.3% and 21.7% and 21.2%	23.2% and 23.1% and 21.7%	–	–	–	–
< 31.6 nM	–	CC(=O)O[C@H]1C(=O)[C@@]2(C)[C@H]([C@H](OC(=O)c3ccccc3)[C@]3(O)C[C@H](OC(=O)[C@H](O)[C@@H](NC(=O)c4ccccc4)c4ccccc4)C(C)=C1C3(C)C)[C@]1(OC(C)=O)CO[C@@H]1C[C@@H]2O	50.5% and 44.8% and 33.4%	32.6% and 33.4% and 25.7%	32% and 29.3% and 21.5%	29.8% and 26.7% and 22.8%	29.6% and 24.3% and 23.2%	29.6% (2×) and 24%	–	–	–	–
1870 nM and 1890 nM and 1750 nM	–	CC(C)(O)C1CCC(Nc2ccc3ncc(-c4cccc(C(F)(F)F)c4)n3n2)CC1 (stereo not given)	94.5% and 97.7% and 83.7%	103% and 88.9% and 87.9%	90% and 92.4% and 78.3%	74.2% and 75.5% and 74.3%	25.5% and 27.5% and 22.3%	33.8% and 31.2% and 26.3%	–	–	–	–
3590 nM and 2350 nM and 3270 nM	–	CC(C)n1c(=O)n(C)c2cnc3cc(F)c(-c4ccc(OCCCN5CCCCC5)nc4)cc3c21	93.2% and 98.1% and 85.8%	95.7% and 88.2% and 81.6%	96.2% and 94.4% and 102%	74.8% and 82.3% and 78.2%	55.2% and 38.8% and 51.6%	20.5% and 11.7% and 18.7%	–	–	–	–
57.4 nM and 61 nM and 62 nM	–	CC1COCCN1c1cc(-c2ccnn2C)c2ccnc(-c3ccn[nH]3)c2n1 (stereo not given)	65.6% and 74.5% and 75.8%	35.5% and 31.4% and 31.2%	15.8% and 12.9% and 15.2%	8.71% and 4.99% and 7.86%	5% and 2.03%	4.63% and 1.67% and 5.37%	–	–	–	–
33.8 nM and 37.4 nM and 37.3 nM	–	CC1COCCN1c1cc(C2(O)CC3CCC(C2)O3)c2cnn(-c3ccn[nH]3)c2n1 (stereo not given)	52.1% and 55.1% and 56%	21.3% and 20.7% and 15.9%	9.11% and 9.51% and 6.18%	6.21% and 5.84% and 2.3%	4.07% and 4.22% and 1.52%	3.07% and 3.7% and 0.82%	–	–	–	–
1290 nM and 1270 nM and 1170 nM	–	CC1COCCN1c1cc(C2(S(C)(=N)=O)CC2)nc(-c2ccnc3[nH]ccc23)n1 (stereo not given)	106% and 98.7% and 79.5%	97.3% and 97.8% and 89.9%	93.4% and 89.1% and 82.5%	59.2% and 58.9% and 55.1%	18.7% and 17.7% and 17%	9.35% and 7.04% and 9.31%	–	–	–	–
> 10000 nM	–	CCCS(=O)(=O)Nc1ccc(F)c(C(=O)c2c[nH]c3ncc(-c4ccc(Cl)cc4)cc23)c1F	93.6% and 96.9% and 102%	104% and 92.1% and 101%	105% and 114% and 98.3%	113% and 97.5% and 123%	96.5% and 102% and 108%	51% and 50.6% and 74.3%	–	–	–	–
95 nM and 266 nM and 83.1 nM	–	CC[C@@]1(O)C(=O)OCc2c1cc1n(c2=O)Cc2cc3c(CN(C)C)c(O)ccc3nc2-1	88.4% and 94.7% and 87.2%	–	35.1% (2×) and 48.3%	–	–	–	84.9% and 109% and 105%	89.6% and 94.4% and 100%	96.2% and 103% and 85.5%	48.2% and 59.4% and 42.4%
2.46 nM and 8.66 nM and 2.44 nM	–	CCc1c2c(nc3ccc(O)cc13)-c1cc3c(c(=O)n1C2)COC(=O)[C@]3(O)CC	32% and 42.5% and 33.4%	–	23.4% and 26.1% and 21.4%	–	–	–	77.2% and 89.1% and 77.4%	38.9% and 53.4% and 39.7%	37.3% and 53.9% and 33%	27.4% and 34.3% and 26%
–	548 nM [middle of 12 runs]	CN(C)c1ccc(Nc2c3ccc(NC(=O)CCN4CCCC4)cc3nc3cc(NC(=O)CCN4CCCC4)ccc23)cc1	97.6% [middle of 12 runs]	99.5% [middle of 12 runs]	–	20% [middle of 12 runs]	1.98% [middle of 11 runs]	0.43% [middle of 12 runs]	–	–	–	–
